Test results reported in ChEMBL document CHEMBL3879907, “8-azabicyclo[3.2.1]octane compounds as mu opioid receptor antagonists” (2014).

Assays:
[1] = target: Delta-type opioid receptor (Homo sapiens, UniProt P41143); assay: Displacement of [3H]-diprenorphine from human delta opioid receptor expressed in cell membranes
[2] = target: Mu-type opioid receptor (Homo sapiens) (UniProt P35372); assay: Intrinsic activity at human mu opioid receptor expressed in CHOK1 cell membranes at 0.00001 to 20 uM after 30 mins by GTP-Eu nucleotide exchange assay relative to DAMGO; type: functional; settings: CHO-K1
Mu-type opioid receptor (Homo sapiens), sequence (P35372 whole entry): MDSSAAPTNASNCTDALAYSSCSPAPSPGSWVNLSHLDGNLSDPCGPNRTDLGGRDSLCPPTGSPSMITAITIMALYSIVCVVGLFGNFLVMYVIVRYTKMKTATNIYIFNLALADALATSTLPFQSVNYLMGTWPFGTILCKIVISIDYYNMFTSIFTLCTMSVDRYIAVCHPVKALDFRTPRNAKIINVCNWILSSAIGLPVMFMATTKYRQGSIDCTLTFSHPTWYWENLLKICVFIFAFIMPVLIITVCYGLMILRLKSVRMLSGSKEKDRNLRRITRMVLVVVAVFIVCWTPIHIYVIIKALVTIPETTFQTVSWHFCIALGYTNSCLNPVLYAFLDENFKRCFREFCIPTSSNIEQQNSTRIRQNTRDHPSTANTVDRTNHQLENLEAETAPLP

[3] = target: Kappa-type opioid receptor (Cavia porcellus, UniProt P41144); assay: Displacement of [3H]-diprenorphine from guinea pig kappa opioid receptor expressed in CHOK1 cell membranes; settings: cho-k1
Kappa-type opioid receptor, sequence (P41144 whole entry): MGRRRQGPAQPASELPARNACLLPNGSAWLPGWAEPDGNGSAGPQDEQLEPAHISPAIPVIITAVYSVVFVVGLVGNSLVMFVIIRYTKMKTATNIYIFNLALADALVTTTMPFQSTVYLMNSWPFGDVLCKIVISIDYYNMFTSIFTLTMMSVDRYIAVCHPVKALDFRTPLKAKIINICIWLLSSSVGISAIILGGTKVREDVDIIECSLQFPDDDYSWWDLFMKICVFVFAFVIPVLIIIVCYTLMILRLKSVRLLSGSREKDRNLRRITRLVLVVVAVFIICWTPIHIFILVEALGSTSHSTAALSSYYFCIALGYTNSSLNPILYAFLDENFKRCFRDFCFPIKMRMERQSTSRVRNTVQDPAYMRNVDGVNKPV

Delta-type opioid receptor, sequence (P41143 whole entry): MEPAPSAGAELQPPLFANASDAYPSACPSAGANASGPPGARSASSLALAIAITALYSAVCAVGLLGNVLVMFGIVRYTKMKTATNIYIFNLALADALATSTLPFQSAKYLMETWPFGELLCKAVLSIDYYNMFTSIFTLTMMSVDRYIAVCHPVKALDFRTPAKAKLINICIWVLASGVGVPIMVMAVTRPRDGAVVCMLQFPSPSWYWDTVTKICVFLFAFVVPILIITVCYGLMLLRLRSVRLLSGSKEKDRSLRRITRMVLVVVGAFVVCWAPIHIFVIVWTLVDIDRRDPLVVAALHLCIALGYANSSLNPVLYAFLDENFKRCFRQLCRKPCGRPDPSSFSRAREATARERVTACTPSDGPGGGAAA

Row | SMILES | pKi [1] | Intrinsic activity [2] [%] | pKi [3]
1 | CN[C@@H](CO)C(=O)N(CCN1[C@@H]2CC[C@H]1C[C@@H](c1cccc(C(N)=O)c1)C2)CC1CCCCC1.O=C(O)C(F)(F)F.O=C(O)C(F)(F)F | 7 to 10.5 | < 40 | 7 to 10.5
2 | NC(=O)c1cccc([C@H]2C[C@H]3CC[C@@H](C2)N3CCN(CC2CCCC2)C(=O)[C@@H](O)CO)c1.O=C(O)C(F)(F)F | 7 to 10.5 | < 40 | 7 to 10.5
3 | NC(=O)c1cccc([C@H]2C[C@H]3CC[C@@H](C2)N3CCN(CC(F)(F)c2ccccc2)C(=O)[C@@H](O)CO)c1.O=C(O)C(F)(F)F | 7 to 10.5 | < 40 | 7 to 10.5
4 | O=C(CO)N(CCN1[C@@H]2CC[C@H]1C[C@@H](c1cccc(O)c1)C2)Cc1cccc(F)c1 | 7 to 10.5 | < 40 | 7 to 10.5
5 | NC(=O)c1cccc([C@H]2C[C@H]3CC[C@@H](C2)N3CCN(CC2CCCCC2)C(=O)C2(O)CC2)c1.O=C(O)C(F)(F)F | 7 to 10.5 | < 40 | 7 to 10.5
6 | NCC(=O)N(CCN1[C@@H]2CC[C@H]1C[C@@H](c1cccc(C(N)=O)c1)C2)CC1CCCCC1 | 7 to 10.5 | < 40 | 7 to 10.5
7 | CC(C)NC(=O)N(CCN1[C@@H]2CC[C@H]1C[C@@H](c1cccc(C(N)=O)c1)C2)CC1CCCCC1 | 7 to 10.5 | < 40 | 7 to 10.5
8 | O=C(Nc1cccc(F)c1)N(CCN1[C@@H]2CC[C@H]1C[C@@H](c1cccc(O)c1)C2)CC1CCCCC1 | 7 to 10.5 | < 40 | 7 to 10.5
9 | CC(CO)(CO)C(=O)N(CCN1[C@@H]2CC[C@H]1C[C@@H](c1cccc(C(N)=O)c1)C2)CC1CCCC1.O=C(O)C(F)(F)F | 7 to 10.5 | < 40 | 7 to 10.5
10 | O=C(CO)N(CCN1[C@@H]2CC[C@H]1C[C@@H](c1cccc(O)c1)C2)Cc1ccc(C(F)(F)F)cc1 | 7 to 10.5 | < 40 | 7 to 10.5
11 | O=C(C1CCCC1)N(CCN1[C@@H]2CC[C@H]1C[C@@H](c1cccc(O)c1)C2)Cc1ccccc1 (single isomer, unassigned) | 7 to 10.5 | < 40 | 7 to 10.5
12 | CC(C)(CO)C(=O)N(CCN1[C@@H]2CC[C@H]1C[C@@H](c1cccc(C(N)=O)c1)C2)CC1CCCCC1 | 7 to 10.5 | < 40 | 7 to 10.5
13 | C[C@H](CN1[C@@H]2CC[C@H]1C[C@@H](c1cccc(O)c1)C2)N(Cc1ccccc1)C(=O)Cc1ccccc1 | 7 to 10.5 | < 40 | 7 to 10.5
14 | O=C(NCc1ccccc1)N(CCN1[C@@H]2CC[C@H]1C[C@@H](c1cccc(O)c1)C2)CC1CCCCC1 | 7 to 10.5 | < 40 | 7 to 10.5
15 | NC(=O)c1cccc([C@H]2C[C@H]3CC[C@@H](C2)N3CCN(CC2CCCCC2)C(=O)[C@H](O)CO)c1 | 7 to 10.5 | < 40 | 7 to 10.5
16 | O=C(O)CC(=O)N(CCN1[C@@H]2CC[C@H]1C[C@@H](c1cccc(O)c1)C2)Cc1cccc(F)c1 | 7 to 10.5 | < 40 | 7 to 10.5
17 | CC(=O)OCC(=O)N(CCN1[C@@H]2CC[C@H]1C[C@@H](c1cccc(O)c1)C2)Cc1ccccc1.O=C(O)C(F)(F)F | 7 to 10.5 | < 40 | 7 to 10.5
18 | O=C(O)CC(=O)N(CCN1[C@@H]2CC[C@H]1C[C@@H](c1cccc(O)c1)C2)Cc1c(F)cccc1F | 7 to 10.5 | < 40 | 7 to 10.5
19 | CS(=O)(=O)CC(=O)N(CCN1[C@@H]2CC[C@H]1C[C@@H](c1cccc(C(N)=O)c1)C2)Cc1ccccc1.O=C(O)C(F)(F)F | 7 to 10.5 | < 40 | 7 to 10.5
20 | C[C@H](O)C(=O)N(CCN1[C@@H]2CC[C@H]1C[C@@H](c1cccc(C(N)=O)c1)C2)CC1CCC1.O=C(O)C(F)(F)F | 7 to 10.5 | < 40 | 7 to 10.5
21 | CC(C)(C)C(=O)N(CCN1[C@@H]2CC[C@H]1C[C@@H](c1cccc(C(N)=O)c1)C2)Cc1ccccc1.O=C(O)C(F)(F)F | 7 to 10.5 | < 40 | 7 to 10.5
22 | O=C(O)CC(=O)N(CCN1[C@@H]2CC[C@H]1C[C@@H](c1cccc(O)c1)C2)CC1CCCCC1 | 7 to 10.5 | < 40 | 7 to 10.5
23 | O=C(O)CS(=O)(=O)CC(=O)N(CCN1[C@@H]2CC[C@H]1C[C@@H](c1cccc(O)c1)C2)CC1CCCCC1 | 7 to 10.5 | < 40 | 7 to 10.5
24 | CC(C)CC(=O)N(CCN1[C@@H]2CC[C@H]1C[C@@H](c1cccc(O)c1)C2)Cc1c(F)cccc1F | 7 to 10.5 | < 40 | 7 to 10.5
25 | CS(=O)(=O)CC(=O)N(CCCN1[C@@H]2CC[C@H]1C[C@@H](c1cccc(C(N)=O)c1)C2)Cc1ccccc1.O=C(O)C(F)(F)F | 7 to 10.5 | < 40 | 7 to 10.5

Row | SMILES | pKi [1] | Intrinsic activity [2] [%] | pKi [3]
26 | NC(=O)c1cccc([C@H]2C[C@H]3CC[C@@H](C2)N3CCN(Cc2cccc(F)c2)C(=O)CO)c1.O=C(O)C(F)(F)F | 7 to 10.5 | < 40 | 7 to 10.5
27 | C[C@H](CN1[C@@H]2CC[C@H]1C[C@@H](c1cccc(O)c1)C2)N(Cc1ccccc1)C(=O)CCC(=O)O | 7 to 10.5 | < 40 | 7 to 10.5
28 | CS(=O)(=O)CC(=O)N(CCN1[C@@H]2CC[C@H]1C[C@@H](c1cccc(O)c1)C2)Cc1cccc(F)c1 | 7 to 10.5 | < 40 | 7 to 10.5
29 | CC(C)(C)C(=O)N(CCN1[C@@H]2CC[C@H]1C[C@@H](c1cccc(C(N)=O)c1)C2)CC1CCCC1.O=C(O)C(F)(F)F | 7 to 10.5 | < 40 | 7 to 10.5
30 | O=C(NCc1ccc(F)cc1)N(CCN1[C@@H]2CC[C@H]1C[C@@H](c1cccc(O)c1)C2)CC1CCCCC1 | 7 to 10.5 | < 40 | 7 to 10.5
31 | NC(=O)c1cccc([C@H]2C[C@H]3CC[C@@H](C2)N3CCN(CC2CCCCC2)C(=O)NCc2ccc(F)cc2)c1 | 7 to 10.5 | < 40 | 7 to 10.5
32 | NC(=O)c1cccc([C@H]2C[C@H]3CC[C@@H](C2)N3CCN(CC2CCC2)C(=O)[C@H](O)CO)c1.O=C(O)C(F)(F)F | 7 to 10.5 | < 40 | 7 to 10.5
33 | CCC(CC)C(=O)N(Cc1ccccc1)[C@H](C)CN1[C@@H]2CC[C@H]1C[C@@H](c1cccc(O)c1)C2 | 7 to 10.5 | < 40 | 7 to 10.5
34 | CS(=O)(=O)CC(=O)N(CCN1[C@@H]2CC[C@H]1C[C@@H](c1cccc(O)c1)C2)Cc1c(F)cccc1F | 7 to 10.5 | < 40 | 7 to 10.5
35 | CC(C)CC(=O)N(CCN1[C@@H]2CC[C@H]1C[C@@H](c1cccc(O)c1)C2)Cc1cccc(F)c1 | 7 to 10.5 | < 40 | 7 to 10.5
36 | CN(C)CC[C@H](O)C(=O)N(CCN1[C@@H]2CC[C@H]1C[C@@H](c1cccc(C(N)=O)c1)C2)CC1CCCCC1 | 7 to 10.5 | < 40 | 7 to 10.5
37 | CC(C)(O)C(=O)N(CCN1[C@@H]2CC[C@H]1C[C@@H](c1cccc(C(N)=O)c1)C2)Cc1ccccc1.O=C(O)C(F)(F)F | 7 to 10.5 | < 40 | 7 to 10.5
38 | NC(=O)c1cccc([C@H]2C[C@H]3CC[C@@H](C2)N3CCN(CC2CCCCC2)C(=O)Nc2ccc3c(c2)OCO3)c1 | 7 to 10.5 | < 40 | 7 to 10.5
39 | CC(C)(C)OCC(=O)N(CCN1[C@@H]2CC[C@H]1C[C@@H](c1cccc(C(N)=O)c1)C2)Cc1c(F)cccc1F.O=C(O)C(F)(F)F | 7 to 10.5 | < 40 | 7 to 10.5
40 | NC(=O)c1cccc([C@H]2C[C@H]3CC[C@@H](C2)N3CCN(CC2CCCCC2)C(=O)[C@@H](O)Cc2ccccc2)c1 | 7 to 10.5 | < 40 | 7 to 10.5
41 | O=C(Nc1ccc2c(c1)OCO2)N(CCN1[C@@H]2CC[C@H]1C[C@@H](c1cccc(O)c1)C2)CC1CCCCC1 | 7 to 10.5 | < 40 | 7 to 10.5
42 | CC(CO)(CO)C(=O)N(CCN1[C@@H]2CC[C@H]1C[C@@H](c1cccc(C(N)=O)c1)C2)CC1CCC(F)(F)CC1.O=C(O)C(F)(F)F | 7 to 10.5 | < 40 | 7 to 10.5
43 | NC(=O)c1cccc([C@H]2C[C@H]3CC[C@@H](C2)N3CCN(Cc2ccccc2)C(=O)C2(O)CC2)c1.O=C(O)C(F)(F)F | 7 to 10.5 | < 40 | 7 to 10.5
44 | NC(=O)c1cccc([C@H]2C[C@H]3CC[C@@H](C2)N3CCN(CC2CCCCC2)C(=O)[C@@H](O)CCO)c1.O=C(O)C(F)(F)F | 7 to 10.5 | < 40 | 7 to 10.5
45 | O=C(CO)N(CCN1[C@@H]2CC[C@H]1C[C@@H](c1cccc(O)c1)C2)Cc1ccc(F)cc1 | 7 to 10.5 | < 40 | 7 to 10.5
46 | NC(=O)c1cccc([C@H]2C[C@H]3CC[C@@H](C2)N3CCN(CC2CCC(F)(F)CC2)C(=O)[C@H](O)CO)c1.O=C(O)C(F)(F)F | 7 to 10.5 | < 40 | 7 to 10.5
47 | CC(CO)(CO)C(=O)N(CCN1[C@@H]2CC[C@H]1C[C@@H](c1cccc(C(N)=O)c1)C2)CC1CCCCC1 | 7 to 10.5 | < 40 | 7 to 10.5
48 | CC(C)(O)C(=O)N(CCN1[C@@H]2CC[C@H]1C[C@@H](c1cccc(C(N)=O)c1)C2)Cc1c(F)cccc1F.O=C(O)C(F)(F)F | 7 to 10.5 | < 40 | 7 to 10.5
49 | COCC(=O)N(CCN1[C@@H]2CC[C@H]1C[C@@H](c1cccc(C(N)=O)c1)C2)Cc1c(F)cccc1F.O=C(O)C(F)(F)F | 7 to 10.5 | < 40 | 7 to 10.5
50 | CS(=O)(=O)CC(=O)N(CCc1ccc(F)cc1)CCN1[C@@H]2CC[C@H]1C[C@@H](c1cccc(C(N)=O)c1)C2.O=C(O)C(F)(F)F | 7 to 10.5 | < 40 | 7 to 10.5
